Test results: PubChem BioAssay AID330 (DTP/NCI, 2004)
“And” between values parts separate entries of the source, which are not always exact repeats. Equal entries are not always repeated. Inconclusive results and toxic doses are left out. How the source made its calls: active means survival T/C of 150% or more; inactive means T/C below 125% in these data.

Test system: P388 leukemia ip, CD2F1 mice, survival T/C
Assay: NCI In Vivo Anticancer Drug Screen. Data for tumor model P388 Leukemia (intraperitoneal) in CD2F1 (CDF1) mice
Conditions: endpoint: median survival time, higher = longer survival
Summary of the method: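 Mice carrying the transplanted tumor received test compound or vehicle. Survival was recorded in each group, and the value is the treated-group measurement divided by that of the vehicle-treated control group.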

[1] = dose: 100.0 mg/kg/injection, schedule: Q04DX003 (ip), vehicle: Klucel (hydroxypropylcellulose) (HPC)
[2] = dose: 200.0 mg/kg/injection, schedule: Q04DX003 (ip), vehicle: Klucel (hydroxypropylcellulose) (HPC)
[3] = dose: 400.0 mg/kg/injection, schedule: Q04DX003 (ip), vehicle: Klucel (hydroxypropylcellulose) (HPC)
[4] = dose: 12.5 mg/kg/injection, schedule: Q01DX009 (ip), vehicle: saline with Tween-80
[5] = dose: 25.0 mg/kg/injection, schedule: Q01DX009 (ip), vehicle: saline with Tween-80

Measured: T/C

CO[C@H]1C[C@@H]2CC[C@@H](C)[C@@](O)(O2)C(=O)C(=O)N2CCCC[C@H]2C(=O)O[C@H]([C@H](C)C[C@@H]2CC[C@@H](O)[C@H](OC)C2)CC(=O)[C@H](C)C=C(C)[C@@H](O)[C@@H](OC)C(=O)[C@H](C)C[C@H](C)/C=C/C=C/C=C1C
inactive: dose: 6.25 mg/kg/injection, schedule: Q01DX001 (ip), vehicle: clinical formulation 103 % of control | dose: 6.25 mg/kg/injection, schedule: Q01DX001 (iv), vehicle: clinical formulation 102 % of control | dose: 6.25 mg/kg/injection, schedule: Q01DX005 (iv), vehicle: clinical formulation 115 % of control | dose: 12.5 mg/kg/injection, schedule: Q01DX001 (ip), vehicle: clinical formulation 107 % of control | dose: 12.5 mg/kg/injection, schedule: Q01DX001 (iv), vehicle: clinical formulation 100 % of control | dose: 12.5 mg/kg/injection, schedule: Q01DX005 (iv), vehicle: clinical formulation 110 % of control | dose: 25.0 mg/kg/injection, schedule: Q01DX001 (ip), vehicle: clinical formulation 111 % of control | dose: 25.0 mg/kg/injection, schedule: Q01DX001 (iv), vehicle: clinical formulation 100 % of control | dose: 25.0 mg/kg/injection, schedule: Q01DX005 (iv), vehicle: clinical formulation 113 % of control | dose: 50.0 mg/kg/injection, schedule: Q01DX001 (ip), vehicle: clinical formulation 118 % of control | dose: 50.0 mg/kg/injection, schedule: Q01DX001 (iv), vehicle: clinical formulation 106 % of control | dose: 50.0 mg/kg/injection, schedule: Q01DX005 (iv), vehicle: clinical formulation 113 % of control | dose: 50.0 mg/kg/injection, schedule: Q01DX005 (oral), vehicle: saline with Tween-80 110 % of control | dose: 50.0 mg/kg/injection, schedule: Q01DX009 (oral), vehicle: saline with Tween-80 116 % of control | dose: 100.0 mg/kg/injection, schedule: Q01DX001 (ip), vehicle: clinical formulation 117 % of control | dose: 100.0 mg/kg/injection, schedule: Q01DX001 (ip), vehicle: saline with Tween-80 124 % of control | dose: 100.0 mg/kg/injection, schedule: Q01DX001 (iv), vehicle: clinical formulation 104 % of control | dose: 100.0 mg/kg/injection, schedule: Q01DX005 (ip), vehicle: clinical formulation 110 % of control | dose: 100.0 mg/kg/injection, schedule: Q01DX005 (oral), vehicle: saline with Tween-80 112 % of control | dose: 100.0 mg/kg/injection, schedule: Q01DX009 (oral), vehicle: saline with Tween-80 119 % of control | dose: 200.0 mg/kg/injection, schedule: Q01DX001 (ip), vehicle: clinical formulation 118 % of control | dose: 200.0 mg/kg/injection, schedule: Q01DX005 (oral), vehicle: saline with Tween-80 108 % of control | dose: 200.0 mg/kg/injection, schedule: Q01DX009 (ip), vehicle: saline with Tween-80 122 % of control | dose: 200.0 mg/kg/injection, schedule: Q01DX009 (oral), vehicle: saline with Tween-80 112 % of control | dose: 400.0 mg/kg/injection, schedule: Q01DX005 (oral), vehicle: saline with Tween-80 118 % of control | dose: 400.0 mg/kg/injection, schedule: Q01DX009 (oral), vehicle: saline with Tween-80 116 % of control | dose: 800.0 mg/kg/injection, schedule: Q01DX005 (oral), vehicle: saline with Tween-80 116 % of control | dose: 800.0 mg/kg/injection, schedule: Q01DX009 (oral), vehicle: saline with Tween-80 116 % of control

C=C(C)C(C)CC(NC(C)=O)C(=O)OC (centres undefined)
inactive: dose: 62.5 mg/kg/injection, schedule: Q04DX002 (ip), vehicle: Klucel (hydroxypropylcellulose) (HPC) 96 % of control | dose: 125.0 mg/kg/injection, schedule: Q04DX002 (ip), vehicle: Klucel (hydroxypropylcellulose) (HPC) 99 % of control | dose: 250.0 mg/kg/injection, schedule: Q04DX002 (ip), vehicle: Klucel (hydroxypropylcellulose) (HPC) 93 % of control

COC(=O)c1ccc(SCCC(=O)CSc2ccc(C(=O)OC)cc2)cc1
inactive: dose: 50.0 mg/kg/injection, schedule: Q01DX009 (ip), vehicle: Klucel (hydroxypropylcellulose) (HPC) 98 % of control | dose: 100.0 mg/kg/injection, schedule: Q01DX009 (ip), vehicle: Klucel (hydroxypropylcellulose) (HPC) 94 % of control | dose: 200.0 mg/kg/injection, schedule: Q01DX009 (ip), vehicle: Klucel (hydroxypropylcellulose) (HPC) 94 % of control

Cc1ncn2ncnc2c1C
inactive: dose: 25.0 mg/kg/injection, schedule: Q04DX003 (ip), vehicle: saline with Tween-80 103 % of control | dose: 50.0 mg/kg/injection, schedule: Q04DX003 (ip), vehicle: saline with Tween-80 104 % of control | dose: 100.0 mg/kg/injection, schedule: Q04DX003 (ip), vehicle: saline with Tween-80 101 % of control and 93 % of control

C=CCCC(=O)SC(C)(C)C
inactive: [1] 112 % of control | [2] 110 % of control | [3] 103 % of control

COc1ccc(C2=CC3CCC(C2)N3C)cc1 (centres undefined)
inactive: dose: 6.25 mg/kg/injection, schedule: Q01DX005 (ip), vehicle: Klucel (hydroxypropylcellulose) (HPC) 96 % of control | dose: 12.5 mg/kg/injection, schedule: Q01DX005 (ip), vehicle: Klucel (hydroxypropylcellulose) (HPC) 110 % of control | dose: 12.5 mg/kg/injection, schedule: Q01DX005 (ip), vehicle: saline 102 % of control | dose: 25.0 mg/kg/injection, schedule: Q01DX005 (ip), vehicle: Klucel (hydroxypropylcellulose) (HPC) 110 % of control and 113 % of control | dose: 25.0 mg/kg/injection, schedule: Q01DX005 (ip), vehicle: saline 98 % of control | dose: 50.0 mg/kg/injection, schedule: Q01DX005 (ip), vehicle: saline 94 % of control

Cc1ccc(NC(=O)c2cc(C)ccc2N)cc1
inactive: dose: 50.0 mg/kg/injection, schedule: Q01DX005 (ip), vehicle: saline with Tween-80 91 % of control | dose: 100.0 mg/kg/injection, schedule: Q01DX005 (ip), vehicle: saline with Tween-80 91 % of control | dose: 200.0 mg/kg/injection, schedule: Q01DX005 (ip), vehicle: saline with Tween-80 101 % of control

NNc1nncn2c1cc1ccccc12
inactive: dose: 6.25 mg/kg/injection, schedule: Q01DX009 (ip), vehicle: saline with Tween-80 98 % of control | [4] 95 % of control | [5] 92 % of control

C1=C[N-]c2c3c(ccc2=C1)=CC=C[N-]3.C1=C[N-]c2c3c(ccc2=C1)=CC=C[N-]3.[Cl][Ru][Cl]
inactive: dose: 1.56 mg/kg/injection, schedule: Q01DX005 (ip), vehicle: saline with Tween-80 88 % of control | dose: 3.13 mg/kg/injection, schedule: Q01DX005 (ip), vehicle: saline with Tween-80 111 % of control | dose: 6.25 mg/kg/injection, schedule: Q01DX005 (ip), vehicle: saline with Tween-80 104 % of control

COc1ccc2c(=O)c(-c3ccc(OC)c(OC)c3OC)coc2c1
inactive: [1] 99 % of control | [2] 100 % of control | [3] 99 % of control

C=C1C=[n+]2ccccc2=N1
inactive: dose: 25.0 mg/kg/injection, schedule: Q01DX009 (ip), vehicle: saline 93 % of control | dose: 50.0 mg/kg/injection, schedule: Q01DX009 (ip), vehicle: saline 96 % of control

N#CC1(N)CC2CCCCC2CC1c1ccccc1 (centres undefined)
inactive: dose: 100.0 mg/kg/injection, schedule: Q04DX002 (ip), vehicle: saline with Tween-80 106 % of control | dose: 200.0 mg/kg/injection, schedule: Q04DX002 (ip), vehicle: saline with Tween-80 101 % of control | dose: 400.0 mg/kg/injection, schedule: Q04DX002 (ip), vehicle: saline with Tween-80 101 % of control

Nc1ccn(CC(=O)c2ccc(Cl)s2)c(=O)n1
inactive: dose: 100.0 mg/kg/injection, schedule: Q04DX003 (ip), vehicle: water 100 % of control | dose: 200.0 mg/kg/injection, schedule: Q04DX003 (ip), vehicle: water 100 % of control | dose: 400.0 mg/kg/injection, schedule: Q04DX003 (ip), vehicle: water 104 % of control

Cc1cn(O)cc(C)c1=N
inactive: [4] 100 % of control | [5] 100 % of control | dose: 50.0 mg/kg/injection, schedule: Q01DX009 (ip), vehicle: saline with Tween-80 108 % of control
